Columns and labels:
[1] = Sweetness enhancement tasting of 2-hydroxybenzoic acid derivatives in fructose solution; type: in vivo; parameters: key: NSE: No Significant Effect; conditions: 5% fructose, roughly neutral pH; 5-9 scale (5, 7.5, 9% fructose references)
Experimental: (§1) The hydroxybenzoic acid derivatives were tasted by themselves in water at a concentration of 3 mM prior to tasting with sucrose, glucose, or fructose to determine enhancement activities. After it was determined that the hydroxybenzoic acid derivatives themselves would contribute no sweetness, they were added to solutions with; 5% fructose, 9% glucose and 6% sucrose. These solutions were adjusted to roughly neutral pH using dilute NaOH solution. The sweetness of the fructose, glucose, and sucrose solutions were evaluated both without and with the hydroxybenzoic acid derivatives using independent sweetness intensity scales for sucrose, fructose, and glucose which were scaled according to references provided for each sweetener, Thus, for sucrose, sweetness references provided were 6, 8, and 10% sucrose and the sweetness intensities of unknown samples were scaled on this 6-10 scale. For fructose, 5, 7.5, and 9% fructose references were provided and the sweetness intensities of unknown samples were scaled on this 5-9 scale. For glucose, 9, 10.5, and 12% glucose references were provided and the sweetness intensities of unknown samples were scaled on this 9-12 scale.

[2] = Rate of dissolution of rebaudioside A forms in water; type: physicochemical
[3] = Sweetness enhancement tasting of 2-hydroxybenzoic acid derivatives in sucrose solution; type: in vivo; parameters: key: NSE: No Significant Effect; conditions: 6% sucrose, roughly neutral pH; 6-10 scale (6, 8, 10% sucrose references)
Experimental: as §1

[4] = Sweetness enhancement tasting of 2-hydroxybenzoic acid derivatives in glucose solution; type: in vivo; parameters: key: NSE: No Significant Effect; conditions: 9% glucose, roughly neutral pH; 9-12 scale (9, 10.5, 12% glucose references)
Experimental: as §1

In the case of `Nc1ccc(C(=O)O)c(O)c1` [compound 29], the “Fructose sweetness rating, without => with the hydroxybenzoic acid derivative” value (“Fructose sweetness rating, without =>” below) [1] is reported as “NSE”.
With rebaudioside A [Form 2] the “Rate of dissolution in H2O at 25° C.” value ([2]; in 5 minutes) was “Intermediate (<30%”.
With rebaudioside A [Form 3] the “Rate of dissolution in H2O at 25° C.” value ([2]; in 5 minutes) was “High (>30%”.
In the case of `O=C(O)c1cc([N+](=O)[O-])ccc1O` [compound 20], the “Fructose sweetness rating, without =>” value [1] is reported as “NSE” and the “Sucrose sweetness rating, without => with the hydroxybenzoic acid derivative” value (“Sucrose sweetness rating, without =>” below) [3] is reported as “NSE”.
In the case of `COc1ccc(O)c(C(=O)O)c1` [compound 3], the “Glucose sweetness rating, without => with the hydroxybenzoic acid derivative” value (shortened to “Glucose sweetness rating, without =>”) [4] is reported as “NSE”, the “Fructose sweetness rating, without =>” value [1] is reported as “NSE” and the “Sucrose sweetness rating, without =>” value [3] is reported as “NSE”.
In the case of `O=C(O)COc1ccc(C(=O)O)c(O)c1` [compound 38], the “Glucose sweetness rating, without =>” value [4] is reported as “NSE”, the “Fructose sweetness rating, without =>” value [1] is reported as “NSE” and the “Sucrose sweetness rating, without =>” value [3] is reported as “NSE”.
In the case of `Cc1ccc(C(=O)O)c(O)c1` [compound 11], the “Glucose sweetness rating, without =>” value [4] is reported as “NSE”, the “Fructose sweetness rating, without =>” value [1] is reported as “NSE” and the “Sucrose sweetness rating, without =>” value [3] is reported as “NSE”.
With `O=C(O)c1ccc(OCCCc2ccccc2)cc1O` [compound 36] the “Glucose sweetness rating, without =>” value [4] was “NSE”, the “Fructose sweetness rating, without =>” value [1] was “NSE” and the “Sucrose sweetness rating, without =>” value [3] was “NSE”.
For `O=C(O)c1ccc(OCCO)cc1O` [compound 39], the “Glucose sweetness rating, without =>” value [4] was “NSE”, the “Fructose sweetness rating, without =>” value [1] was “NSE” and the “Sucrose sweetness rating, without =>” value [3] was “NSE”.
For `O=C(O)c1cccc([N+](=O)[O-])c1O` [compound 18], the “Glucose sweetness rating, without =>” value [4] was “NSE”, the “Fructose sweetness rating, without =>” value [1] was “NSE” and the “Sucrose sweetness rating, without =>” value [3] was “NSE”.
For `O=C(O)c1ccc(O)c(C(=O)O)c1` [compound 33], the “Glucose sweetness rating, without =>” value [4] was “NSE”, the “Fructose sweetness rating, without =>” value [1] was “NSE” and the “Sucrose sweetness rating, without =>” value [3] was “NSE”.
In the case of `O=C(O)c1ccc(OCCCCO)cc1O` [compound 40], the “Glucose sweetness rating, without =>” value [4] is reported as “NSE”, the “Fructose sweetness rating, without =>” value [1] is reported as “NSE” and the “Sucrose sweetness rating, without =>” value [3] is reported as “NSE”.
For `Nc1cccc(C(=O)O)c1O` [compound 28], the “Glucose sweetness rating, without =>” value [4] was “NSE”, the “Fructose sweetness rating, without =>” value [1] was “NSE” and the “Sucrose sweetness rating, without =>” value [3] was “NSE”.
For `Cc1ccc(O)c(C(=O)O)c1` [compound 12], the “Glucose sweetness rating, without =>” value [4] was “NSE”, the “Fructose sweetness rating, without =>” value [1] was “NSE” and the “Sucrose sweetness rating, without =>” value [3] was “NSE”.
For `O=C(O)c1ccc(OCc2ccccc2)cc1O` [compound 35], the “Glucose sweetness rating, without =>” value [4] was “NSE”, the “Fructose sweetness rating, without =>” value [1] was “NSE” and the “Sucrose sweetness rating, without =>” value [3] was “NSE”.
In the case of `COC(=O)COc1ccc(C(=O)O)c(O)c1` [compound 37], the “Glucose sweetness rating, without =>” value [4] is reported as “NSE”, the “Fructose sweetness rating, without =>” value [1] is reported as “NSE” and the “Sucrose sweetness rating, without =>” value [3] is reported as “NSE”.
In the case of `COc1ccc(C(=O)O)c(O)c1` [compound 2], the “Glucose sweetness rating, without =>” value [4] is reported as “NSE”, the “Fructose sweetness rating, without =>” value [1] is reported as “NSE” and the “Sucrose sweetness rating, without =>” value [3] is reported as “NSE”.
With `COc1cccc(O)c1C(=O)O` [compound 4] the “Glucose sweetness rating, without =>” value [4] was “NSE”, the “Fructose sweetness rating, without =>” value [1] was “NSE” and the “Sucrose sweetness rating, without =>” value [3] was “NSE”.
With `CCCOc1ccc(C(=O)O)c(O)c1` [compound 34] the “Glucose sweetness rating, without =>” value [4] was “NSE”, the “Fructose sweetness rating, without =>” value [1] was “NSE” and the “Sucrose sweetness rating, without =>” value [3] was “NSE”.
In the case of `Nc1ccc(O)c(C(=O)O)c1` [compound 30], the “Glucose sweetness rating, without =>” value [4] is reported as “NSE”, the “Fructose sweetness rating, without =>” value [1] is reported as “NSE” and the “Sucrose sweetness rating, without =>” value [3] is reported as “NSE”.
With `NC(=O)COc1ccc(C(=O)O)c(O)c1` [compound 41] the “Glucose sweetness rating, without =>” value [4] was “NSE”, the “Fructose sweetness rating, without =>” value [1] was “NSE” and the “Sucrose sweetness rating, without =>” value [3] was “NSE”.
For `O=C(O)c1cc(F)ccc1O` [compound 23], the “Glucose sweetness rating, without =>” value [4] was “NSE”, the “Fructose sweetness rating, without =>” value [1] was “NSE” and the “Sucrose sweetness rating, without =>” value [3] was “NSE”.
With `COc1cccc(C(=O)O)c1O` [compound 1] the “Glucose sweetness rating, without =>” value [4] was “NSE”, the “Fructose sweetness rating, without =>” value [1] was “NSE” and the “Sucrose sweetness rating, without =>” value [3] was “NSE”.
For rebaudioside A [Form 1], the “Rate of dissolution in H2O at 25° C.” value ([2]; in 60 minutes) was “Very low (<0.2%”.
In the case of `Cc1c(O)ccc(C(=O)O)c1O` [compound 25], the “Glucose sweetness rating, without =>” value [4] is reported as “NSE”, the “Fructose sweetness rating, without =>” value [1] is reported as “NSE” and the “Sucrose sweetness rating, without =>” value [3] is reported as “NSE”.
With `Cc1cc(C)c(O)c(C(=O)O)c1` [compound 31] the “Glucose sweetness rating, without =>” value [4] was “NSE”, the “Fructose sweetness rating, without =>” value [1] was “NSE” and the “Sucrose sweetness rating, without =>” value [3] was “NSE”.
In the case of `Nc1cc(C(=O)O)c(O)c(S(=O)(=O)O)c1` [compound 27], the “Glucose sweetness rating, without =>” value [4] is reported as “NSE”, the “Fructose sweetness rating, without =>” value [1] is reported as “NSE” and the “Sucrose sweetness rating, without =>” value [3] is reported as “NSE”.
For `O=C(O)c1ccc(O)c(O)c1O` [compound 26], the “Glucose sweetness rating, without =>” value [4] was “NSE”, the “Fructose sweetness rating, without =>” value [1] was “NSE” and the “Sucrose sweetness rating, without =>” value [3] was “NSE”.
In the case of rebaudioside A [Form 4], the “Rate of dissolution in H2O at 25° C.” value ([2]; in 5 minutes) is reported as “High (>35.0%”.
For `O=Cc1ccc(O)c(C(=O)O)c1` [compound 32], the “Glucose sweetness rating, without =>” value [4] was “NSE”, the “Fructose sweetness rating, without =>” value [1] was “NSE” and the “Sucrose sweetness rating, without =>” value [3] was “NSE”.
With `CCOc1ccc(C(=O)O)c(O)c1` [compound 14] the “Glucose sweetness rating, without =>” value [4] was “NSE”, the “Fructose sweetness rating, without =>” value [1] was “NSE” and the “Sucrose sweetness rating, without =>” value [3] was “NSE”.
For `O=C(O)c1c(O)cccc1F` [compound 24], the “Glucose sweetness rating, without =>” value [4] was “NSE”, the “Fructose sweetness rating, without =>” value [1] was “NSE” and the “Sucrose sweetness rating, without =>” value [3] was “NSE”.
With `O=C(O)c1c(O)cccc1O` [compound 8] the “Sucrose sweetness rating, without =>” value [3] was “NSE”.

Reference: patent publication US20090053378A1, “Sweetener Compositions Having Enhanced Sweetness and Improved Temporal and/or Flavor Profiles” (THE COCA-COLA COMPANY, priority 2007, published 2009)
